Legend:
BCR-FMS BaF3 cells = molecular target: T1, BCR-FMS BaF3 cells (Homo sapiens, UniProt P07333); test: BaF3 BCR-FMS cell proliferation assay (ATPlite); type: cell-based; settings: read-out: Inhibition of Cell Proliferation IC50, BCR/BaF3 Fms
T1 construct: fused on or other part: P11274 (Breakpoint cluster region protein)
T1 sequence (P07333 582-910): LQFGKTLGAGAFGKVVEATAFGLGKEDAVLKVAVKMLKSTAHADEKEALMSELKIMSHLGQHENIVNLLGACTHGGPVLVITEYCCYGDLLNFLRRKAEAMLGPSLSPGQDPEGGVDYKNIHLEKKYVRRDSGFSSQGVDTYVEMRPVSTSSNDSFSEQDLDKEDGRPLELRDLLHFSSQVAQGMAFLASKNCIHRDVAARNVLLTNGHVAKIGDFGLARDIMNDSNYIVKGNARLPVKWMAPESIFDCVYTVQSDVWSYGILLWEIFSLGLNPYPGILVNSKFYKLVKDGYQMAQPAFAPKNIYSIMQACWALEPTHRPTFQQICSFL
Outline: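 For these proliferation assays, engineered BaF3 cells (10,000/well, IL-3 withdrawn) and MV-4-11 cells (25,000/well) received compound serially diluted 1:3 from 10 μM over 8 points, with DMSO as control. After three days of culture, ATP content was measured by luminescence to derive IC50.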

CYP3A4(BFC) = CYP3A4(BFC) (Homo sapiens, UniProt P08684); test: CYP3A4(BFC) inhibition; type: in vitro ADME; settings: CYP3A4, substrate BFC; read-out: Cyp IC50 3A4(BFC)
Sequence of CYP3A4(BFC) (P08684 whole entry): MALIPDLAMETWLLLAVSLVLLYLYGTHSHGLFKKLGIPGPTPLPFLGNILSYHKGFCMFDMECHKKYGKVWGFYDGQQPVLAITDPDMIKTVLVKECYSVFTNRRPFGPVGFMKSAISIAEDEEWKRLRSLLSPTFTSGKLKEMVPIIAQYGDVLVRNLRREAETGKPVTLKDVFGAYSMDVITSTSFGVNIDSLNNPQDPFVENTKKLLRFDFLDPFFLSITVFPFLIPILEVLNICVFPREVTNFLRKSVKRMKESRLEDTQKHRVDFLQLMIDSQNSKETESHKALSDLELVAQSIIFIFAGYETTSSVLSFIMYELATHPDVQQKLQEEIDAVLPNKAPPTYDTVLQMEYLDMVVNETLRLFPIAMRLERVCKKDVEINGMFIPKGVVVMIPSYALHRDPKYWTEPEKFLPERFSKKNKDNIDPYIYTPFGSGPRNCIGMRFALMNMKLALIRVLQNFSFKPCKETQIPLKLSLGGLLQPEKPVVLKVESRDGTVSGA
Outline: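 This fluorescence assay tracks how test compounds reduce CYP3A4 turnover of BFC, with enzyme and substrate from BD Biosciences. A 10-point 1:1 dilution series in cofactor mix (1.3% NADPH Regeneration Solution A, 1.04% Solution B, 5% acetonitrile, 0.05% DMSO) was dispensed at 10 μL into 384 well plates, preincubated 10 minutes at 37° C, then incubated 30 min and read on a Tecan Safire 2.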

Row | IC50 (BCR-FMS BaF3 cells) [µM] | IC50 (CYP3A4(BFC)) [µM] | SMILES
1 | < 0.01 | 5 to 10 | CCn1cc(Nc2ccc(Cc3c[nH]c4ncnc(OC)c34)c(F)n2)cn1 [Compound P-4011, (1-Ethyl-1H-pyrazol-4-yl)-[6-fluoro-5-(4-methoxy-7H-pyrrolo[2,3-d]pyrimidin-5-ylmethyl)-pyridin-2-yl]-amine]
2 | < 0.1 | 5 to 10 | COc1ccc(Nc2ccc(C(=O)c3c[nH]c4ncnc(C5CC5)c34)c(F)n2)cn1 [Compound P-4022, (4-cyclopropyl-7H-pyrrolo[2,3-d]pyrimidin-5-yl)-[2-fluoro-6-(6-methoxy-pyridin-3-ylamino)-pyridin-3-yl]-methanone]
3 | < 0.1 | > 10 | Cc1ccc(Nc2ccc(C(=O)c3c[nH]c4ncnc(C5CC5)c34)c(F)n2)cn1 [Compound P-4031, (4-Cyclopropyl-7H-pyrrolo[2,3-d]pyrimidin-5-yl)-[2-fluoro-6-(6-methyl-pyridin-3-ylamino)-pyridin-3-yl]-methanone]
4 | < 0.1 | > 10 | CCc1ccc(Nc2ccc(C(=O)c3c[nH]c4ncnc(C5CC5)c34)c(F)n2)cn1 [Compound P-4029, (4-Cyclopropyl-7H-pyrrolo[2,3-d]pyrimidin-5-yl)-[6-(6-ethyl-pyridin-3-ylamino)-2-fluoro-pyridin-3-yl]-methanone]
5 | < 0.01 | > 10 | COCCOc1ncnc2[nH]cc(Cc3ccc(Nc4ccc(C)nc4)nc3F)c12 [Compound P-4015, {6-Fluoro-5-[4-(2-methoxy-ethoxy)-7H-pyrrolo[2,3-d]pyrimidin-5-ylmethyl]-pyridin-2-yl}-(6-methyl-pyridin-3-yl)-amine]
6 | < 0.01 | > 10 | CCn1cc(Nc2ccc(Cc3c[nH]c4ncnc(C)c34)c(F)n2)cn1 [Compound P-4013, (1-Ethyl-1H-pyrazol-4-yl)-[6-fluoro-5-(4-methyl-7H-pyrrolo[2,3-d]pyrimidin-5-ylmethyl)-pyridin-2-yl]-amine]
7 | < 0.1 | 5 to 10 | CCn1cc(Nc2ccc(Cc3c[nH]c4ncnc(C5CC5)c34)c(F)n2)cn1 [Compound P-4036, [5-(4-Cyclopropyl-7H-pyrrolo[2,3-d]pyrimidin-5-ylmethyl)-6-fluoro-pyridin-2-yl]-(1-ethyl-1H-pyrazol-4-yl)-amine]
8 | < 0.1 | 5 to 10 | CCn1cc(Nc2ccc(C(=O)c3c[nH]c4ncnc(C5CC5)c34)c(F)n2)cn1 [Compound P-4037, (4-Cyclopropyl-7H-pyrrolo[2,3-d]pyrimidin-5-yl)-[6-(1-ethyl-1H-pyrazol-4-ylamino)-2-fluoro-pyridin-3-yl]-methanone]
9 | < 0.01 | < 5 | Fc1nc(Nc2ccc(C3CC3)nc2)ccc1Cc1c[nH]c2ncnc(NCC(F)(F)F)c12 [Compound P-4130, 5-[[6-[(6-cyclopropyl-3-pyridyl)amino]-2-fluoro-3-pyridyl]methyl]-N-(2,2,2-trifluoroethyl)-7H-pyrrolo[2,3-d]pyrimidin-4-amine]
10 | < 0.1 |  | Cc1cncc(Nc2ccc(C(=O)c3c[nH]c4ncnc(C5CC5)c34)c(F)n2)c1 [Compound P-4039, (4-Cyclopropyl-7H-pyrrolo[2,3-d]pyrimidin-5-yl)-[2-fluoro-6-(5-methyl-pyridin-3-ylamino)-pyridin-3-yl]-methanone]
11 | < 0.1 |  | Cc1cncc(Nc2ccc(Cc3c[nH]c4ncnc(C5CC5)c34)c(F)n2)c1 [Compound P-4038, [5-(4-Cyclopropyl-7H-pyrrolo[2,3-d]pyrimidin-5-ylmethyl)-6-fluoro-pyridin-2-yl]-(5-methyl-pyridin-3-yl)-amine]

Second part, the compound before the results:

Row | SMILES | IC50 (BCR-FMS BaF3 cells) [µM] | IC50 (CYP3A4(BFC)) [µM]
12 | Clc1cnc2[nH]cc(Cc3cnc(NC4CCCCC4)nc3)c2c1 [Compound P-3001, [5-(5-chloro-1H-pyrrolo[2,3-b]pyridin-3-ylmethyl)-pyrimidin-2-yl]-cyclohexyl-amine] | < 0.1 | > 10
13 | Cc1cnc2[nH]cc(Cc3cnc(Nc4ccc(C(F)(F)F)nc4)nc3)c2c1 [Compound P-3018, [5-(5-Methyl-1H-pyrrolo[2,3-b]pyridin-3-ylmethyl)-pyrimidin-2-yl]-(6-trifluoromethyl-pyridin-3-yl)-amine] | < 0.1 | < 5
14 | CCOc1ccc(Nc2ccc(Cc3c[nH]c4ncc(C)cc34)c(F)n2)cn1 [Compound P-3039, (6-ethoxy-pyridin-3-yl)-[6-fluoro-5-(5-methyl-1H-pyrrolo[2,3-b]pyridin-3-ylmethyl)-pyridin-2-yl]-amine] | < 0.01 | > 10
15 | CCOc1ccc(Nc2ccc(Cc3c[nH]c4ncnc(OCCOC)c34)c(F)n2)cn1 [Compound P-4008, (6-Ethoxy-pyridin-3-yl)-{6-fluoro-5-[4-(2-methoxy-ethoxy)-7H-pyrrolo[2,3-d]pyrimidin-5-ylmethyl]-pyridin-2-yl}-amine] | < 0.01 | 5 to 10
16 | Cc1cnc2[nH]cc(Cc3ccc(Nc4ccc(C5CC5)nc4)nc3F)c2c1 [Compound P-3050, (6-Cyclopropyl-pyridin-3-yl)-[6-fluoro-5-(5-methyl-1H-pyrrolo[2,3-b]pyridin-3-ylmethyl)-pyridin-2-yl]-amine] | < 0.1 | > 10
17 | Cc1ccc(Nc2ccc(C(=O)c3c[nH]c4ncc(Cl)cc34)c(F)n2)cn1 [Compound P-3044, (5-Chloro-1H-pyrrolo[2,3-b]pyridin-3-yl)-[2-fluoro-6-(6-methyl-pyridin-3-ylamino)-pyridin-3-yl]-methanone] | < 0.1 | > 10
18 | COc1ccc(Nc2ccc(C(=O)c3c[nH]c4ncc(C)cc34)c(F)n2)cn1 [Compound P-3040, [2-Fluoro-6-(6-methoxy-pyridin-3-ylamino)-pyridin-3-yl]-(5-methyl-1H-pyrrolo[2,3-b]pyridin-3-yl)-methanone] | < 0.1 | > 10
19 | Clc1cnc2[nH]cc(Cc3cnc(NC4CCCCCC4)nc3)c2c1 [Compound P-3006, [5-(5-Chloro-1H-pyrrolo[2,3-b]pyridin-3-ylmethyl)-pyrimidin-2-yl]-cycloheptyl-amine] | < 1 | > 10
20 | COc1ccc(Nc2ccc(Cc3c[nH]c4ncc(C)cc34)c(F)n2)cn1 [Compound P-3019, [6-fluoro-5-(5-methyl-1H-pyrrolo[2,3-b]pyridin-3-ylmethyl)-pyridin-2-yl]-(6-methoxy-pyridin-3-yl)-amine] | < 0.01 | > 10
21 | Cc1cnc2[nH]cc(Cc3ccc(Nc4ccc(C)nc4)nc3F)c2c1 [Compound P-3041, [6-Fluoro-5-(5-methyl-1H-pyrrolo[2,3-b]pyridin-3-ylmethyl)-pyridin-2-yl]-(6-methyl-pyridin-3-yl)-amine] | < 0.01 | 5 to 10
22 | CCc1ccc(Nc2ccc(Cc3c[nH]c4ncnc(OC)c34)c(F)n2)cn1 [Compound P-4007, (6-Ethyl-pyridin-3-yl)-[6-fluoro-5-(4-methoxy-7H-pyrrolo[2,3-d]pyrimidin-5-ylmethyl)-pyridin-2-yl]-amine] | < 0.01 | > 10
23 | COc1ncnc2[nH]cc(Cc3ccc(Nc4ccc(C5CC5)nc4)nc3F)c12 [Compound P-4004, (6-Cyclopropyl-pyridin-3-yl)-[6-fluoro-5-(4-methoxy-7H-pyrrolo[2,3-d]pyrimidin-5-ylmethyl)-pyridin-2-yl]-amine] | < 0.01 | > 10
24 | CCOc1ccc(Nc2ccc(Cc3c[nH]c4ncnc(OC)c34)c(F)n2)cn1 [Compound P-4005, (6-Ethoxy-pyridin-3-yl)-[6-fluoro-5-(4-methoxy-7H-pyrrolo[2,3-d]pyrimidin-5-ylmethyl)-pyridin-2-yl]-amine] | < 0.01 | > 10
25 | CCc1ccc(Nc2ccc(Cc3c[nH]c4ncnc(C)c34)c(F)n2)cn1 [Compound P-4009, (6-Ethyl-pyridin-3-yl)-[6-fluoro-5-(4-methyl-7H-pyrrolo[2,3-d]pyrimidin-5-ylmethyl)-pyridin-2-yl]-amine] | < 0.01 | > 10
26 | COc1ncnc2[nH]cc(Cc3ccc(Nc4ccc(C)nc4)nc3F)c12 [Compound P-4010, [6-Fluoro-5-(4-methoxy-7H-pyrrolo[2,3-d]pyrimidin-5-ylmethyl)-pyridin-2-yl]-(6-methyl-pyridin-3-yl)-amine] | < 0.01 | > 10
27 | CCOc1ccc(Nc2ncc(Cc3c[nH]c4ncc(C)cc34)cn2)cn1 [Compound P-3027, (6-Ethoxy-pyridin-3-yl)-[5-(5-methyl-1H-pyrrolo[2,3-b]pyridin-3-ylmethyl)-pyrimidin-2-yl]-amine] | < 0.01 | 
28 | COc1ccccc1Nc1ncc(Cc2c[nH]c3ncc(Cl)cc23)cn1 [Compound P-3016, [5-(5-Chloro-1H-pyrrolo[2,3-b]pyridin-3-ylmethyl)-pyrimidin-2-yl]-(2-methoxy-phenyl)-amine] | < 1 | 
29 | Cc1cnc2[nH]cc(Cc3cnc(Nc4cc(C5CC5)n[nH]4)nc3)c2c1 [Compound P-3032, (5-Cyclopropyl-2H-pyrazol-3-yl)-[5-(5-methyl-1H-pyrrolo[2,3-b]pyridin-3-ylmethyl)-pyrimidin-2-yl]-amine] | < 1 | 

Source: patent US8901118B2, “Compounds and methods for kinase modulation, and indications therefor” (Plexxikon Inc., priority 2010, dated 2014)
